As a reminder, the EC50 is the concentration at which the effect is half-maximal. A lower EC50 goes with a more potent agent.

This assay concerns NL-RLuc virus. Description: Inhibition of HIV replication (NL-RLuc luciferase reporter virus in MT-2 cells). It is filed as cell-based. To be noted: Human immunodeficiency virus 1, MT2, 120 h.
In turn, `Cc1nc2cc3nn2c(c1[C@H](OC(C)(C)C)C(=O)O)N1CCC(C)(CC1)OCCC[C@H](C)Oc1cc(F)ccc1-c1cccc-3c1` [Example 10, (2S)-2-(tert-Butoxy)-2-[(22S)-18-fluoro-4,22,27-trimethyl-21,26-dioxa-1,5,7,8-tetraazahexacyclo[25.2.2.1^6,9.1^10,14.0^2,7.0^15,20]tritriaconta-2,4,6(33),8,10(32),11,13,15(20),16,18-decaen-3-yl]acetic acid] registered a concentration for a half-maximal effect (EC50) of 11 nM. In the case of `Cc1nc2cc3nn2c(c1[C@H](OC(C)(C)C)C(=O)O)N1CCC(C)(CC1)OC/C=C/[C@H](C)Oc1ccc(F)cc1-c1cccc-3c1` [Example 13, (2S)-2-(tert-Butoxy)-2-[(22S,23E)-17-fluoro-4,22,27-trimethyl-21,26-dioxa-1,5,7,8-tetraazahexacyclo[25.2.2.1^6,9.1^10,14.0^2,7.0^15,20]tritriaconta-2,4,6(33),8,10(32),11,13,15(20),16,18,23-undecaen-3-yl]acetic acid] it was 4 nM; in that of `Cc1ccc2c(c1F)-c1cccc(c1)-c1cc3nc(C)c([C@H](OC(C)(C)C)C(=O)O)c(n3n1)N1CCC(C)(CC1)OC/C=C/[C@H](C)O2` [Example 11, (2S)-2-(tert-Butoxy)-2-[(22S,23E)-16-fluoro-4,17,22,27-tetramethyl-21,26-dioxa-1,5,7,8-tetraazahexacyclo[25.2.2.1^6,9.1^10,14.0^2,7.0^15,20]tritriaconta-2,4,6(33),8,10(32),11,13,15(20),16,18,23-undecaen-3-yl]acetic acid], 3 nM. Under `Cc1nc2cc3nn2c(c1[C@H](OC(C)(C)C)C(=O)O)N1CCC(C)(CC1)OCCCC[C@H](C)Oc1cc(F)ccc1-c1cc(F)cc-3c1` [Example 27, (2S)-2-(tert-Butoxy)-2-[(22S)-12,18-difluoro-4,22,28-trimethyl-21,27-dioxa-1,5,7,8-tetraazahexacyclo[26.2.2.1^6,9.1^10,14.0^2,7.0^15,20]tetratriaconta-2,4,6(34),8,10(33),11,13,15(20),16,18-decaen-3-yl]acetic acid] stands 45 nM; under `Cc1ccc2c(c1)-c1cccc(c1)-c1cc3nc(C)c([C@H](OC(C)(C)C)C(=O)O)c(n3n1)N1CCC(C)(CC1)O/C=C\CC[C@H](C)O2` [Example 19, (2S)-2-(tert-Butoxy)-2-[(22S,25Z)-4,17,22,28-tetramethyl-21,27-dioxa-1,5,7,8-tetraazahexacyclo[26.2.2.1^6,9.1^10,14.0^2,7.0^15,20]tetratriaconta-2,4,6(34),8,10(33),11,13,15(20),16,18,25-undecaen-3-yl]acetic acid], 33 nM. In the case of `Cc1nc2cc3nn2c(c1[C@H](OC(C)(C)C)C(=O)O)N1CCC(C)(CC1)OCCCC[C@H](C)Oc1cc(F)ccc1-c1cc-3ccc1F` [Example 28, (2S)-2-(tert-Butoxy)-2-[(22S)-13,18-difluoro-4,22,28-trimethyl-21,27-dioxa-1,5,7,8-tetraazahexacyclo[26.2.2.1^6,9.1^10,14.0^2,7.0^15,20]tetratriaconta-2,4,6(34),8,10(33),11,13,15(20),16,18-decaen-3-yl]acetic acid] it was 27 nM; in that of `Cc1nc2cc3nn2c(c1[C@H](OC(C)(C)C)C(=O)O)N1CCC(C)(CC1)OCCCC[C@H](C)Oc1ccc(C(F)(F)F)cc1-c1cccc-3c1` [Example 1, (2S)-2-(tert-Butoxy)-2-[(22S)-4,22,28-trimethyl-17-(trifluoromethyl)-21,27-dioxa-1,5,7,8-tetraazahexacyclo[26.2.2.1^6,9.1^10,14.0^2,7.0^15,20]tetratriaconta-2,4,6(34),8,10(33),11,13,15(20),16,18-decaen-3-yl]acetic acid], 39 nM. `Cc1ccc2c(c1)O[C@@H](C)/C=C/COC1(C)CCN(CC1)c1c([C@H](OC(C)(C)C)C(=O)O)c(C)nc3cc(nn13)-c1cccc-2c1` [Example 15, (2S)-2-(tert-Butoxy)-2-[(22S,23E)-4,18,22,27-tetramethyl-21,26-dioxa-1,5,7,8-tetraazahexacyclo[25.2.2.1^6,9.1^10,14.0^2,7.0^15,20]tritriaconta-2,4,6(33),8,10(32),11,13,15(20),16,18,23-undecaen-3-yl]acetic acid] came in with a half-maximal effective concentration (EC50) of 8 nM.

In turn, `Cc1nc2cc3nn2c(c1[C@H](OC(C)(C)C)C(=O)O)N1CCC(C)(CCCCCC(C)Oc2ccc(C(N)=O)cc2-c2cccc-3c2)CC1` (stereo in doubt) [Example 24, (2S)-2-(tert-butoxy)-2-[(22S)-17-carbamoyl-4,22,28-trimethyl-21-oxa-1,5,7,8-tetraazahexacyclo[26.2.2.1^6,9.1^10,14.0^2,7.0^15,20]tetratriaconta-2,4,6(34),8,10(33),11,13,15(20),16,18-decaen-3-yl]acetic acid] registered an EC50 of 4 nM. For the compound `Cc1nc2cc3nn2c(c1[C@H](OC(C)(C)C)C(=O)O)N1CCC(C)(CC1)OCCC[C@H](C)Oc1ccc(F)cc1-c1cccc-3c1` [Example 14, (2S)-2-(tert-Butoxy)-2-[(22S)-17-fluoro-4,22,27-trimethyl-21,26-dioxa-1,5,7,8-tetraazahexacyclo[25.2.2.1^6,9.1^10,14.0^2,7.0^15,20]tritriaconta-2,4,6(33),8,10(32),11,13,15(20),16,18-decaen-3-yl]acetic acid], the EC50 was 9 nM. In the case of `Cc1ccc2c(c1F)-c1cccc(c1)-c1cc3nc(C)c([C@H](OC(C)(C)C)C(=O)O)c(n3n1)N1CCC(C)(CC1)OCCC[C@H](C)O2` [Example 12, (2S)-2-(tert-Butoxy)-2-[(22S)-16-fluoro-4,17,22,27-tetramethyl-21,26-dioxa-1,5,7,8-tetraazahexacyclo[25.2.2.1^6,9.1^10,14.0^2,7.0^15,20]tritriaconta-2,4,6(33),8,10(32),11,13,15(20),16,18-decaen-3-yl]acetic acid] it was 3 nM; in that of `Cc1cc(F)c2c(c1)O[C@@H](C)C/C=C/COC1(C)CCN(CC1)c1c([C@H](OC(C)(C)C)C(=O)O)c(C)nc3cc(nn13)-c1cccc-2c1` [Example 4, (2S)-2-(tert-Butoxy)-2-[(22S,24E)-16-fluoro-4,18,22,28-tetramethyl-21,27-dioxa-1,5,7,8-tetraazahexacyclo[26.2.2.1^6,9.1^10,14.0^2,7.0^15,20]tetratriaconta-2,4,6(34),8,10(33),11,13,15(20),16,18,24-undecaen-3-yl]acetic acid], 23 nM; in that of `CCc1ccc2c(c1)-c1cccc(c1)-c1cc3nc(C)c([C@H](OC(C)(C)C)C(=O)O)c(n3n1)N1CCC(C)(CC1)OCCCC[C@H](C)O2` [Example 7, (2S)-2-(tert-Butoxy)-2-[(22S)-17-ethyl-4,22,28-trimethyl-21,27-dioxa-1,5,7,8-tetraazahexacyclo[26.2.2.1^6,9.1^10,14.0^2,7.0^15,20]tetratriaconta-2,4,6(34),8,10(33),11,13,15(20),16,18-decaen-3-yl]acetic acid], 29 nM. In the case of `Cc1nc2cc3nn2c(c1[C@H](OC(C)(C)C)C(=O)O)N1CCC(C)(CC1)OCCCC[C@H](C)Oc1ccc(C(=O)NCCC(C)(C)C)cc1-c1cccc-3c1` [Example 25, (2S)-2-(tert-Butoxy)-2-[(22S)-17-[(3,3-dimethylbutyl)carbamoyl]-4,22,28-trimethyl-21,27-dioxa-1,5,7,8-tetraazahexacyclo[26.2.2.1^6,9.1^10,14.0^2,7.0^15,20]tetratriaconta-2,4,6(34),8,10(33),11,13,15(20),16,18-decaen-3-yl]acetic acid] it was 4 nM. `Cc1ccc2c(c1)O[C@@H](C)CCCOC1(C)CCN(CC1)c1c([C@H](OC(C)(C)C)C(=O)O)c(C)nc3cc(nn13)-c1cccc-2c1` [Example 16, (2S)-2-(tert-Butoxy)-2-[(22S)-4,18,22,27-tetramethyl-21,26-dioxa-1,5,7,8-tetraazahexacyclo[25.2.2.1^6,9.1^10,14.0^2,7.0^15,20]tritriaconta-2,4,6(33),8,10(32),11,13,15(20),16,18-decaen-3-yl]acetic acid] yielded a concentration giving a half-maximal response (EC50) of 8 nM. In the case of `Cc1nc2cc3nn2c(c1[C@H](OC(C)(C)C)C(=O)O)N1CCC(C)(CC1)OCCCC[C@H](C)Oc1cc(F)ccc1-c1ccc(F)c-3c1` [Example 26, (2S)-2-(tert-Butoxy)-2-[(22S)-11,18-difluoro-4,22,28-trimethyl-21,27-dioxa-1,5,7,8-tetraazahexacyclo[26.2.2.1^6,9.1^10,14.0^2,7.0^15,20]tetratriaconta-2,4,6(34),8,10(33),11,13,15(20),16,18-decaen-3-yl]acetic acid] it was 49 nM. `Cc1cc(F)c2c(c1)O[C@@H](C)CCCOC1(C)CCN(CC1)c1c([C@H](OC(C)(C)C)C(=O)O)c(C)nc3cc(nn13)-c1cccc-2c1` [Example 18, (2S)-2-(tert-Butoxy)-2-[(22S)-16-fluoro-4,18,22,27-tetramethyl-21,26-dioxa-1,5,7,8-tetraazahexacyclo[25.2.2.1^6,9.1^10,14.0^2,7.0^15,20]tritriaconta-2,4,6(33),8,10(32),11,13,15(20),16,18-decaen-3-yl]acetic acid] displayed a concentration for a half-maximal effect (EC50) of 7 nM.

Consider `Cc1nc2cc3nn2c(c1[C@H](OC(C)(C)C)C(=O)O)N1CCC(C)(CC1)OCCCC[C@H](C)Oc1cc(F)cc(F)c1-c1cccc-3c1` [Example 3, (2S)-2-(tert-Butoxy)-2-[(22S)-16,18-difluoro-4,22,28-trimethyl-21,27-dioxa-1,5,7,8-tetraazahexacyclo[26.2.2.1^6,9.1^10,14.0^2,7.0^15,20]tetratriaconta-2,4,6(34),8,10(33),11,13,15(20),16,18-decaen-3-yl]acetic acid], for which the concentration giving a half-maximal response (EC50) was determined as 26 nM. `Cc1nc2cc3nn2c(c1[C@H](OC(C)(C)C)C(=O)O)N1CCC(C)(CCC=CCC(C)Oc2ccc(C#N)cc2-c2cccc-3c2)CC1` (stereo in doubt) [Example 22, (2S)-2-(tert-Butoxy)-2-[(22S)-17-cyano-4,22,28-trimethyl-21-oxa-1,5,7,8-tetraazahexacyclo[26.2.2.1^6,9.1^10,14.0^2,7.0^15,20]tetratriaconta-2,4,6(34),8,10(33),11,13,15(20),16,18,24-undecaen-3-yl]acetic acid] gave an EC50 of 13 nM.
